PubChem BioAssay (NCI)
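These data come from cells grown in 96-well plates and exposed to compound for 48 hours at five concentrations. TGI: concentration producing complete growth inhibition.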

Tests used:
Experiment in all cases: NCI tumour cell line growth inhibition, 48 h
CAKI-1 renal = system: CAKI-1 renal
HCT-116 colon = system: HCT-116 colon
LOX IMVI melanoma = system: LOX IMVI melanoma
M14 melanoma = system: M14 melanoma
SF-295 CNS = system: SF-295 CNS
SF-539 CNS = system: SF-539 CNS
SK-MEL-2 melanoma = system: SK-MEL-2 melanoma
SK-OV-3 ovarian = system: SK-OV-3 ovarian
UACC-257 melanoma = system: UACC-257 melanoma

SMILES | TGI (CAKI-1 renal) | TGI (HCT-116 colon) | TGI (LOX IMVI melanoma) | TGI (M14 melanoma) | TGI (SF-295 CNS) | TGI (SF-539 CNS) | TGI (SK-MEL-2 melanoma) | TGI (SK-OV-3 ovarian) | TGI (UACC-257 melanoma)
CC1=C(CC2C(=O)N(c3ccccc3)S(=O)(=O)NC2C)C(=O)N(c2ccccc2)S(=O)(=O)N1C (stereo not given) | > 100 µM | > 100 µM | > 100 µM | > 100 µM | > 100 µM | > 100 µM | > 100 µM | > 100 µM | –
Cc1ccccc1-n1c(N)c(-c2nc3ccccc3[nH]2)sc1=S | 71.4 µM | – | 52.6 µM | 36.5 µM | 42.4 µM | 41.1 µM | 48.3 µM | 72.6 µM | 36.6 µM
O=C1C=C(O)C(=Cc2c(O)cc(O)cc2O)C(O)=C1 | > 100 µM | > 100 µM | > 100 µM | > 100 µM | > 100 µM | > 100 µM | > 100 µM | > 100 µM | > 100 µM
O=C(NCCNCCO)c1cccc2ccc(-c3ccccc3)nc12 | 14.1 µM | 11.8 µM | 10.5 µM | 17.8 µM | 18.9 µM | 13 µM | 20.2 µM | 27.7 µM | 14.2 µM
COC(=O)C(C(=O)C(=O)Nc1ccc([N+](=O)[O-])cc1)c1nc2ccc([N+](=O)[O-])cc2[nH]c1=O (stereo not given) | > 100 µM | > 100 µM | > 100 µM | > 100 µM | > 100 µM | > 100 µM | > 100 µM | > 100 µM | > 100 µM
N[C@H](COCc1ccccc1)c1ccccc1 | 61.2 µM | 61.8 µM | > 92.2 µM | 66 µM | 82.5 µM | 75.1 µM | 49.8 µM | > 100 µM | > 81.1 µM
COc1ccc(OC(=O)CC2Cc3cc(OC)c(OC)c(OC)c3-c3ccc(SC)c(=O)cc32)cc1 (stereo not given) | – | 11.2 µM | 17.8 µM | > 100 µM | – | 0.54 µM | 59 µM | 61.4 µM | > 54.2 µM
N#CCN1C(=O)c2cc([N+](=O)[O-])cc3cc([N+](=O)[O-])cc(c23)C1=O | 96.6 µM | > 42.7 µM | 18.8 µM | 48.2 µM | > 100 µM | 31.8 µM | 14.1 µM | > 100 µM | 28.6 µM
Cc1ccc(NC(=O)C(=O)C(C(=O)/C=C/c2ccccc2)C2OC(=O)c3ccccc32)c(C)c1 (stereo not given) | > 100 µM | > 100 µM | > 100 µM | > 100 µM | > 100 µM | > 100 µM | – | > 100 µM | > 100 µM
Cc1cc(=O)c2c(O)cc3c(c2o1)CC=C(COC1OC(COC2OC(CO)C(O)C(O)C2O)C(O)C(O)C1O)CO3 (stereo not given) | > 100 µM | > 100 µM | > 100 µM | > 100 µM | > 100 µM | > 100 µM | > 100 µM | > 100 µM | > 100 µM
CC1=NN(c2ccccc2)C(=O)/C1=C\c1ccc([N+](=O)[O-])cc1 | 73.6 µM | – | 48.1 µM | > 100 µM | 68.9 µM | 45.2 µM | 56 µM | 58.7 µM | > 100 µM
c1ccc2c(c1)CCc1c-2n[nH]c1-c1[nH]nc2c1CCc1ccccc1-2 | > 100 µM | > 100 µM | > 100 µM | > 100 µM | > 100 µM | > 100 µM | > 100 µM | > 100 µM | > 100 µM
CCOc1ccc(NC(=O)CCc2nnc(SC)o2)cc1 | > 100 µM | > 100 µM | > 100 µM | > 100 µM | > 100 µM | > 100 µM | > 100 µM | > 100 µM | > 100 µM
COc1cc(C2(C)SCCCS2)cc(OC)c1OC | > 100 µM | > 100 µM | > 100 µM | > 100 µM | > 100 µM | > 100 µM | > 100 µM | > 100 µM | > 100 µM
NC1=NC(=O)C(CC(=O)Nc2ccc(Cl)cc2Cl)S1 (stereo not given) | > 100 µM | – | > 100 µM | > 100 µM | > 100 µM | > 100 µM | > 100 µM | > 100 µM | > 100 µM
CCCC(S(=O)(=O)c1ccccc1)S(=O)(=O)c1ccccc1 | > 100 µM | > 100 µM | – | > 100 µM | > 100 µM | > 100 µM | > 100 µM | > 100 µM | > 100 µM
N#CNc1nc(N)c(-c2ccc(Cl)cc2)c(C(=O)Nc2nccs2)n1 | > 100 µM | > 100 µM | > 100 µM | > 100 µM | > 100 µM | > 100 µM | > 100 µM | – | > 100 µM
Cc1cc2c(c(C(N)=O)c1C)-c1cc(Cl)cc(Cl)c1C2=O | – | > 100 µM | > 100 µM | > 100 µM | > 100 µM | > 100 µM | > 100 µM | > 100 µM | > 100 µM
CC(C)(C)c1cc2nc(c1)C(C(F)(F)F)(C(F)(F)F)OB(Br)OC2(C(F)(F)F)C(F)(F)F | 1.18 µM | – | 3.78 µM | 3.38 µM | 3.4 µM | 7.31 µM | 11.2 µM | 10.7 µM | 0.188 µM
